Laboratory results from patent US12263155B2, “Combinations of monoamine oxidase inhibitors and serotonin receptor agonists and their therapeutic use” (Remedi, Inc., priority 2022, dated 2025).

Experiment: Phase I 14-day twice-daily pharmacokinetics
Conditions: for concentration at 12 h: C12h
Method: Methods: The study was a Phase I, single-center, randomized, parallel-group, multiple-dose, placebo-controlled, pharmacodynamic, pharmacokinetic and safety study in healthy volunteers. To obtain 24 enrolled subjects, screening procedures and inclusion/exclusion criteria were evaluated for 54 subjects during a variable screening period of up to 28 days. Once enrolled, subjects were randomized to either CX157 10 mg, 20 mg or 40 mg or matching placebo administered twice daily for 14 consecutive days.
Formulations: Each natural/transparent Licaps® size 0 hard gelatin capsule contains 10 mg CX157 in Labrasol™; each capsule is banded with a green gelatin band comprised of gelatin NF and polysorbate-80 NF. CX157 Liquid Filled Capsules are packaged in white, opaque, high density polyethylene (HDPE) bottles with screw-top polypropylene child resistant caps. Each bottle contains 30 capsules. CX157 Liquid Filled Capsules, 5 and 10 mg are stored long-term at controlled room temperature conditions [15-30° C. (59-86° F.)].

[1] = healthy volunteers, 10 mg twice daily, Day 1, mean
[2] = healthy volunteers, 10 mg twice daily, Day 14, mean
[3] = healthy volunteers, 20 mg twice daily, Day 1, mean
[4] = healthy volunteers, 20 mg twice daily, Day 14, mean
[5] = healthy volunteers, 40 mg twice daily, Day 1, mean
[6] = healthy volunteers, 40 mg twice daily, Day 14, mean, N = 4
[7] = human, plasma, oral, 10 mg, healthy volunteers, 10 mg twice daily, Day 1, mean
[8] = human, plasma, oral, 10 mg, healthy volunteers, 10 mg twice daily, Day 14, mean
[9] = human, plasma, oral, 20 mg, healthy volunteers, 20 mg twice daily, Day 1, mean
[10] = human, plasma, oral, 20 mg, healthy volunteers, 20 mg twice daily, Day 14, mean
[11] = human, plasma, oral, 40 mg, healthy volunteers, 40 mg twice daily, Day 1, mean
[12] = human, plasma, oral, 40 mg, healthy volunteers, 40 mg twice daily, Day 14, mean, N = 4

O=S1(=O)c2ccc(F)cc2Oc2cc(OCC(F)(F)F)ccc21 [CX157, 3-fluoro-7(2,2,2-trifluorethoxy)phenoxathiine-10,10-dioxide]
AUC0-12h/Dose [1]: 380 | Cmax/Cmin [1]: 31.4 ratio | Cmax/Dose [1]: 137 | Tmin [1]: 10.7 h | AUC0-12h/Dose [2]: 753 | CSS [2]: 8.1 ng/mL | Cmax/Cmin [2]: 6.64 ratio | Cmax/Dose [2]: 185 | Tmin [2]: 12 h | AUC0-12h/Dose [3]: 312 | Cmax/Cmin [3]: 36.7 ratio | Cmax/Dose [3]: 128 | Cmin [3]: 1.13 ng/mL | Tmin [3]: 12 h | AUC0-12h/Dose [4]: 400 | Cmax/Cmin [4]: 10.8 ratio | Cmax/Dose [4]: 104 | Cmin [4]: 3.05 ng/mL | Tmin [4]: 12 h | % AUCextrap (healthy volunteers, 20 mg twice daily, Day 14, mean, N = 2): 19.0c % | AUC0-12h/Dose [5]: 363 | Cmax/Cmin [5]: 28.2 ratio | Cmax/Dose [5]: 136 | Cmin [5]: 2.52 ng/mL | Tmin [5]: 12 h | % AUCextrap [6]: 16.5% | AUC0-12h/Dose [6]: 687 | CSS [6]: 29.6 ng/mL | Cmax/Cmin [6]: 15.6 ratio | Cmax/Dose [6]: 320 | Cmin [6]: 8.8 ng/mL | Tmin [6]: 12 h | half-life (human, plasma, oral): 33.3 to 35.3 h | AUC(0-t) (human, plasma, oral, 10 mg, AUC0-12h, healthy volunteers, 10 mg twice daily, Day 1, mean): 50 ng·h/mL | AUC(0-t) (human, plasma, oral, 10 mg, AUC0-12h, healthy volunteers, 10 mg twice daily, Day 14, mean): 97 ng·h/mL | AUC(0-t) (human, plasma, oral, 10 mg, AUClast, healthy volunteers, 10 mg twice daily, Day 14, mean): 180 ng·h/mL | concentration at 12 h [7]: 0.63 ng/mL | concentration at 12 h [8]: 3 ng/mL | Cmax [7]: 18.1 ng/mL | Cmax [8]: 24.2 ng/mL | concentration at 1 day (human, plasma, oral, 10 mg, Cmin, healthy volunteers, 10 mg twice daily, Day 1, mean): 0.6 ng/mL | concentration at 14 day (human, plasma, oral, 10 mg, Cmin, healthy volunteers, 10 mg twice daily, Day 14, mean): 3 ng/mL | Tmax (human, plasma, oral, 10 mg, healthy volunteers, 10 mg twice daily, Day 1, median): 1 h | Tmax (human, plasma, oral, 10 mg, healthy volunteers, 10 mg twice daily, Day 14, median): 1 h | AUC(0-inf) (human, plasma, oral, 20 mg): 433 ng·h/mL | half-life (human, plasma, oral, 20 mg): 33.3 h | AUC(0-t) (human, plasma, oral, 20 mg, AUC0-12h, healthy volunteers, 20 mg twice daily, Day 1, mean): 83.5 ng·h/mL | AUC(0-t) (human, plasma, oral, 20 mg, AUC0-12h, healthy volunteers, 20 mg twice daily, Day 14, mean): 115 ng·h/mL | AUC(0-t) (human, plasma, oral, 20 mg, AUClast, healthy volunteers, 20 mg twice daily, Day 14, mean): 191 ng·h/mL | concentration at 12 h [9]: 1.13 ng/mL | concentration at 12 h [10]: 3.05 ng/mL | concentration at 14 day (human, plasma, oral, 20 mg, CSS, healthy volunteers, 20 mg twice daily, Day 14, mean): 9.6 ng/mL | Cmax [9]: 32.3 ng/mL | Cmax [10]: 30.1 ng/mL | Tmax (human, plasma, oral, 20 mg, healthy volunteers, 20 mg twice daily, Day 1, median): 1.25 h | Tmax (human, plasma, oral, 20 mg, healthy volunteers, 20 mg twice daily, Day 14, median): 1.5 h | AUC(0-inf) (human, plasma, oral, 40 mg): 712 ng·h/mL | half-life (human, plasma, oral, 40 mg): 35.3 h | AUC(0-t) (human, plasma, oral, 40 mg, AUC0-12h, healthy volunteers, 40 mg twice daily, Day 1, mean): 186 ng·h/mL | AUC(0-t) (human, plasma, oral, 40 mg, AUC0-12h, healthy volunteers, 40 mg twice daily, Day 14, mean, N = 4): 355 ng·h/mL | AUC(0-t) (human, plasma, oral, 40 mg, AUClast, healthy volunteers, 40 mg twice daily, Day 14, mean, N = 4): 602 ng·h/mL | concentration at 12 h [11]: 2.52 ng/mL | concentration at 12 h [12]: 8.8 ng/mL | concentration at 14 day (human, plasma, oral, 40 mg, CSS, healthy volunteers, 40 mg twice daily, Day 14, mean, N = 4): 29.6 ± 19.6 ng/mL | Cmax [11]: 69.5 ng/mL | Cmax [12]: 166 ± 179 ng/mL | Tmax (human, plasma, oral, 40 mg, healthy volunteers, 40 mg twice daily, Day 1, median): 1.08 h | Tmax (human, plasma, oral, 40 mg, healthy volunteers, 40 mg twice daily, Day 14, median, N = 4): 0.5 h | AUC(0-t) (human, plasma, oral, 40 mg, mean AUC0-12h, 40 mg twice daily, Day 14): 355 ± 235 ng·h/mL
